# Earlier results in patent US20050038042A1, “Modified release composition comprising a short-acting hypnotic for treatment of sleep disorders” (priority 2002, published 2005).
# Experiments:
# [1] = compared with marketed benzodiazepines
# [2] = in humans
structure (smiles),measurement,setting,value
"CCN(C(C)=O)c1cccc(-c2ccnc3c(C#N)cnn23)c1 [Zaleplon, N-[3-(3-cyanopyrazolo[1,5-a]pyrimidin-7-yl)phenyl]-N-ethylacetamide]",effects in animal models,[1],"sedative, anxiolytic, myorelaxant, and anticonvulsive effects similar to those of marketed benzodiazepines"
same,effect on sleep onset,clinical trials,effective in shortening sleep onset
same,safety profile,"clinical trials, versus previously available benzodiazepine or nonbenzodiazepine hypnotics",more favorable safety profile
same,period over which decreased time to sleep onset was shown,controlled clinical studies,up to 28 days
same,mean duration of effect,"human, in vivo",4 to 5 h
same,total sleep time / number of awakenings,patients with sleep disorders,not been shown to consistently increase total sleep time or decrease the number of awakenings
same,time to maximum plasma concentration (tmax),[2],48 min
